{
  "source": "patent US8741843B2",
  "about": "“Compositions and methods for inducing angiogenesis” (priority 2006, dated 2014)",
  "key": {"endothelial cells": {"tested_on": "endothelial cells", "assay": "CoCl2-induced apoptosis of endothelial cells (Annexin-FITC/PI FACS)", "type": "cell-based, human", "details": "normoxia, 100 micromolar per 100,000 cells CoCl2, 10 ng/ml peptide 24 hours", "experimental": "FIGS. 33a-f are representative FACS analyses depicting a specific inhibition of hypoxia-induced apoptosis of endothelial cells by ADOPep1. Endothelial cells in Petri dishes were incubated for 24 hours with 5% FCS in supplement-free endothelial cell growth medium under normoxia (FIGS. 33a and d), exposed to 24 hours hypoxia (Figures c and f) or incubated under normoxia with 100 micromolar per 100,000 cells CoCl2 (FIGS. 33b and e), in the absence (FIGS. 33a-c) or presence (FIGS. 33d-f) of 10 ng/ml Adopep1 peptide (for 24 hours). Cells were trypsinized and immediately re-suspended in PBS with 5% FCS and 0.1% Na-azide. Samples containing 100,000 cells were tested for apoptosis using the Annexin-FITC (X axis) and propidium iodide (Y axis) kit (Bender Medsystems, Vienna, Austria), according to manufacturer's instructions. Results were analyzed by FACScan (Beckton Dickinson).\nFIG. 34 is a histogram depicting the FACS results of the experiments described in FIGS. 33a-f. Data represents average±SD of 2 experiments."}, "[1]": {"tested_on": "GRP78 in mouse ischemic hind limb", "assay": "GRP78-positive cells in ischemic hind limb sections", "type": "in vivo", "details": "1 μg/mice, 7 to 14 days post ligation, vs PBS", "experimental": "FIG. 21 is a bar graph depicting the mean number of GRP78-positive (GRP78+) cells per area in hind limb ischemia treated with ADOPep1 as a function of the days post induction of ischemia. Mice were subjected to hind limb ligation (the ischemic model) and after one day the mice were injected with either 1 μg/mice of ADOPep1, or 50 μl of PBS as control. The number of GRP78 positive cells was determined in histological sections prepared from ligated hind limbs (injected with ADOPep1 or PBS) of mice sacrificed at 7, 14 or 21 days post ischemia induction or normal untreated (non-ischemic) hind limbs."}, "mouse ischemic hind limb": {"tested_on": "mouse ischemic hind limb", "assay": "Apoptotic cells in ischemic hind limb sections", "type": "in vivo", "details": "1 μg/mice, 7 days post ligation, vs PBS", "experimental": "FIG. 22 is a bar graph depicting the number of apoptotic cells per field in ischemic hind limb treated with ADOPep1 as a function of days after ischemia induction. Mice were subjected to hind limb ligation and PBS or ADOpep1 injection as described in the description of FIG. 21, hereinabove, and the number of apoptotic cells per microscopical filed was determined in histological sections prepared from either ligated and ADopep or PBS treated hind limbs of mice sacrificed at 7, 14 or 21 days post ischemia induction or from normal non-ischemic hind limbs."}, "GRP78": {"target": "GRP78 (Homo sapiens, UniProt P11021)", "sequence (P11021 19-654)": "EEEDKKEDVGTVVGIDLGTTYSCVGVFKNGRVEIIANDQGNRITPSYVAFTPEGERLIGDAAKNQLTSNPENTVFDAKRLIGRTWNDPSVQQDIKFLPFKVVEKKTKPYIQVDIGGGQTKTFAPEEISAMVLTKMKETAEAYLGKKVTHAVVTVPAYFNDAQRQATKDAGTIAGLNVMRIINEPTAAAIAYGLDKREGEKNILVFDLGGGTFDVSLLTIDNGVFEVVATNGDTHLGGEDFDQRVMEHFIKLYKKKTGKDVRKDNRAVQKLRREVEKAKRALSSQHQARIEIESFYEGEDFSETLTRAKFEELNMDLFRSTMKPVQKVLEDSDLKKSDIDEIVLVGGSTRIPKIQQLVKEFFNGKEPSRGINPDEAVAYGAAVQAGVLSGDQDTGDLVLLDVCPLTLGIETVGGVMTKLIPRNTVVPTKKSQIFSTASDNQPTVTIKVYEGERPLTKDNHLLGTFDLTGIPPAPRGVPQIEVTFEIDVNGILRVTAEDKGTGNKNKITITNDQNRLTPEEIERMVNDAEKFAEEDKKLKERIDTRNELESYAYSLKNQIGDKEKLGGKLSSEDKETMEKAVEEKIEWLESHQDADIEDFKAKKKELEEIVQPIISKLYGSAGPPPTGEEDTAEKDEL", "assay": "GRP78 receptor internalization in endothelial cells under hypoxia", "type": "cell-based", "parameters": "endogenous in cells; host or cells: HUVEC / endothelial cells from umbilical cords, under normoxia or hypoxia", "details": "10 ng/ml, after 5 minutes of incubation", "experimental": "FIG. 29 is a graph depicting GRP78 receptor internalization response to ADOPep1 binding under hypoxic conditions. Endothelial cells were incubated under starvation conditions and hypoxia over night. Cells were incubated with 10 ng/ml ADoPep1 for 5, 15, 30 and 60 minutes. For membrane staining biotinylated AdoePep1 at 5 micrograms was added to intact cells for 1 hour and replaced by streptavidin FITC. For intracellular staining, cells were fixed with 1% paraformaldehyde followed by 15 minutes incubation with 0.1% saponin. After washing of cells, biotinylated AdoPep was added to the cells. The samples were analyzed with a FACScan (Beckton Dickinson). Membrane staining is shown by the blue bars (results are expressed in percentages, as normalized to untreated cells); Mean intracellular staining is shown by the purple bars (results are expressed in mean fluorescence);"}, "[2]": {"tested_on": "endothelial cells (HUVEC)", "assay": "Binding of biotinylated ADOPep to endothelial cells by FACS", "parameters": "species or system human", "experimental": "FIG. 3 is a FACS analysis depicting the binding (in percentages) of biotinylated ADOPep1 (ADOPep1^Biot), an ADAM15 derived peptide (SEQ ID NO:2), to endothelial cells (EC) under normoxia. Biotinylated ADOPep1 at 0.05, 0.5 and 5 microgram/ml (μg/ml) were added to endothelial cells.\nFIG. 4 is a FACS analysis depicting the binding (in total counts) of Biotinylated ADOPep1 to endothelial cells under normoxia and hypoxia conditions. […] X axis—Intensity of binding.\nHuman umbilical endothelial cells (HUVEC) were harvested by trypsin and 100,000 cells per sample were suspended in PBS+5% FCS+0.1% Na azide. Endothelial cells were either exposed for 5 hours to hypoxia or remained under normoxia conditions. Cells were stained for 2 hours on ice in dark with 0.05, 0.5, 5 μg/100,000 cells biotinylated ADOPeps. The cells were then washed twice with PBS, following which the cells were stained for 30 minutes with FITC-labeled Streptavidin (Jackson ImmunoResearch Laboratories, PA, USA). After washing, samples were analyzed using a fluorescence activated cell sorter (FACScan Beckton Dickinson, Calif., USA)."}, "[3]": {"tested_on": "endothelial cells (HUVEC)", "assay": "Proliferation of endothelial cells under hypoxia ([H3]Thymidine incorporation)", "type": "cell-based, human", "details": "24 hours starvation, 10 ng/ml", "experimental": "FIG. 5 is a graph depicting cell proliferation as a function of ADOPeps' concentration. Proliferation of endothelial cells (EC) under hypoxia conditions was measured by [H^3]Thymidine incorporation. Endothelial cells (12,000/well) in minimal growth medium were incubated for 24 hours in the presence of 1, 10 and 100 ng/ml of ADOPep1 (SEQ ID NO:2; red diamonds), 2 (SEQ ID NO:3; blue squares) and 3 (SEQ ID NO:4; green triangles) peptides.\nHUVEC from passage 3 were used for proliferation experiments. Endothelial cells (15,000 cells/well) were seeded on 24-wells in the presence of endothelial cell growth medium (Promocell, Heidelberg, Germany) with supplements and incubated for 24 hours. After then, cells were exposed to 24 hours starvation in a medium free of supplements. ADOPeps were added at concentrations of 1, 10 and 100 ng/ml for 24 hours under hypoxic conditions. 2 μCi/well of Thymidine (SIGMA, Rehovot Israel) were added or over night incubation followed by 3 washes with PBS before harvesting at 37° C. with 300 μl/well of 0.5 M NaOH. Cell lysates were transferred to scintillation vials with 2 ml scintillation liquid Ultima Gold (Packard Bioscience, Meriden, USA) and counted in a β counter. Results were obtained as counts per minute (cpm)."}},
  "note": "Entries after “also recorded” stand apart in the source; their conditions may differ.",
  "data": [
    {"sequence": "HWRRAHLLPRLP [ADOPep1, ADAM15 derived peptide, amino acids 286-297 of the metalloprotease domain]", "values": [
      {"measurement": "effect on CoCl2 induced apoptosis", "setting": "endothelial cells", "value": "no effect on apoptosis induced by CoCl2; also recorded: not the CoCl2 induced apoptosis"},
      {"measurement": "effect on CoCl2 induced apoptosis", "setting": "endothelial cells; listed as AdoPep1", "value": "did not inhibit apoptosis of endothelial cells exposed to the apoptotic inducer Cobalt-Chloride"},
      {"measurement": "mean number of GRP78 positive cells", "setting": "[1]", "value": "significantly increased"},
      {"measurement": "mean number of GRP78 positive cells", "setting": "[1]; listed as Adopep1", "value": "more significant increase in mean number of GRP78 positive cells"},
      {"measurement": "number of apoptotic cells per field", "setting": "mouse ischemic hind limb", "value": "significant decrease"},
      {"measurement": "number of apoptotic cells per field", "setting": "mouse ischemic hind limb; listed as ADoPep1", "value": "dramatically decreased"},
      {"measurement": "GRP78 receptor internalization", "setting": "GRP78", "value": "induced GRP78 receptor internalization"},
      {"measurement": "binding to endothelial cells under hypoxia versus normoxia", "setting": "[2]; 5 micrograms per 100,000 cells", "value": "increase in binding; also recorded: increased under hypoxia"},
      {"measurement": "percent binding of biotinylated ADOPep1 to endothelial cells", "setting": "[2]; hypoxia 5 hours, 5 μg/ml", "value": "about 85%"},
      {"measurement": "percent binding of biotinylated ADOPep1 to endothelial cells", "setting": "[2]; normoxia, maximal at 5 μg/ml", "value": "about 62%"},
      {"measurement": "proliferation of endothelial cells", "setting": "[3]", "value": "capable of inducing proliferation of EC"},
      {"measurement": "proliferation of endothelial cells", "setting": "[3]; listed as ADOpep1", "value": "induced proliferation of endothelial cells"}
    ]}
  ]
}
